Test results: EPA's ToxValDB 9.5 (doi:10.2903/j.efsa.2009.296r)
In brackets after ≈: the same amount, converted by molar mass.

Experiments:
[1] = tested on: Mus musculus; conditions: acute; oral; mortality
[2] = tested on: Tagia sp.
[3] = tested on: Oryctolagus sp.; conditions: developmental; development
[4] = tested on: Anas platyrhynchos; conditions: oral
[5] = tested on: Apis mellifera; conditions: acute, duration: 48 hours, mortality
[6] = tested on: Coturnix coturnix; conditions: oral
[7] = tested on: Salmo trutta ssp. fario; conditions: acute; duration: 96 hours; mortality
[8] = reproductive; oral; feed; reproduction
[9] = tested on: Rattus norvegicus
[10] = tested on: Daphnia magna; conditions: chronic/long-term; duration: 21 days
[11] = tested on: Oncorhynchus mykiss; conditions: chronic/long-term; duration: 28 days

## O=C1C2CC=CCC2C(=O)N1SC(Cl)(Cl)Cl (stereo not drawn) [Captan]
[1]
  LD50: > 2000 mg/kg
[2]; acute, duration: 14 days, mortality
  LC50: > 519 mg/kg
[2]; chronic/long-term, duration: 8 weeks, reproduction
  NOEC: 11.6 mg/kg
[3]
  NOAEL: 30 mg/kg-day
[4]; acute, unspecified, mortality
  LD50: > 2000 mg/kg
[4]; reproductive, unspecified, no effects
  NOEC: 74.4 mg/kg-day
[4]; short-term, feed, mortality
  LC50: > 1040 mg/kg-day
[5]; dermal
  LC50: > 200 µg/piece
[5]; oral, unspecified
  LD50: > 100 µg/piece
[6]; acute, diet, mortality
  LC50: > 800 mg/kg-day
[6]; acute, mortality
  LD50: > 2000 mg/kg
[6]; reproduction developmental, no effects
  NOEC: 83.2 mg/kg-day
[7]
  LC50: 0.098 µg/mL (≈ 0.326 µM)
[8]
  NOAEL: 100 mg/kg-day
[9]; acute, oral, mortality
  LD50: > 2000 mg/kg
[9]; developmental, development
  NOAEL: 10 mg/kg-day
[10]
  NOEC: 0.56 mg/L
[11]
  NOEC: 0.199 mg/L
